Measurements taken from PMC6925341 (SLAS discovery : advancing life sciences R & D, 2019).

Tested on: HPV16-PsV
Assay: organism not typed
Format: cell-based, HPV-16
Details: 30 μM, secondary stock

In the case of N=C(N)c1ccc(OCCCCCOc2ccc(C(=N)N)cc2)cc1 [Pentamidine], the “reduction of HPV-16PsV infection, fold change compared with the control of cells only” value is reported as “twofold”.

For O=C1C=C2C=C[C@@H]3C[C@@]2(O1)[C@H]1CCCCN31 [Securinine], the “reduction of HPV-16PsV infection, fold change compared with the control of cells only” value was 1.5 fold.

Same assay, conditions: 72 h, read-out: HPV Infection IC50

Point of comparison: C[C@H]1O[C@@H](n2cc(F)c(=O)[nH]c2=O)[C@H](O)[C@@H]1O [Doxifluridine], IC50 5 µM. Against it:
- COc1cc(NS(C)(=O)=O)ccc1Nc1c2ccccc2nc2ccccc12 [Amsacrine] — 500-fold lower, 0.01 µM
- N=c1ccn2c(n1)O[C@H]1[C@H](O)[C@@H](CO)O[C@H]12 [Ancitabine] — lower, < 0.007 µM
- O=[N+]([O-])C(Br)(CO)CO [Bronopol] — 1.7-fold lower, 3 µM
- Cc1cc(C2CCCCC2)n(O)c(=O)c1 [Ciclopirox] — 2.5-fold lower, 2 µM
- COc1cc([C@@H]2c3cc4c(cc3[C@@H](O[C@@H]3O[C@@H]5CO[C@@H](C)O[C@H]5[C@H](O)[C@H]3O)[C@H]3COC(=O)[C@H]23)OCO4)cc(OC)c1O [Etoposide] — 500-fold lower, 0.01 µM
- O=c1[nH]c(=O)n([C@H]2C[C@H](O)[C@@H](CO)O2)cc1F [Floxuridine] — lower, < 0.007 µM
- O=c1[nH]cc(F)c(=O)[nH]1 [Fluorouracil] — 5-fold lower, 1 µM
- CNCCC=C1c2ccccc2CCc2ccccc21 [Nortriptyline] — within 1.5-fold, 6 µM
- Cc1nccn1CC1CCc2c(c3ccccc3n2C)C1=O (centres unmarked) [Ondansetron] — the same, 5 µM
- N=C(N)c1ccc(OCCCCCOc2ccc(C(=N)N)cc2)cc1 [Pentamidine] — 2.5-fold lower, 2 µM
- CC[C@@]1(O)C(=O)OCc2c1cc1n(c2=O)Cc2cc3c([N+](=O)[O-])cccc3nc2-1 [Rubitecan] — 6.2-fold lower, 0.8 µM
- O=C1C=C2C=C[C@@H]3C[C@@]2(O1)[C@H]1CCCCN31 [Securinine] — 2.5-fold lower, 2 µM
- Cc1cc2nc3ccc(N(C)C)cc3[s+]c2cc1N [Tolonium chloride] — 2.5-fold lower, 2 µM

Same assay, conditions: control validation, known inhibitor

For heparin, the “inhibition of HPV 16-PsV infection IC50” value was 24 µg/mL.

Same assay, conditions: read-out: HPV Infection IC50

Point of comparison: O=c1[nH]c(=O)n([C@H]2C[C@H](O)[C@@H](CO)O2)cc1F [Fluorodeoxyuridine], IC50 4 µM. Against it:
- O=C1[O][Pt]2([NH][C@@H]3CCCC[C@H]3[NH]2)[O]C1=O [Oxaliplatin] — 4-fold lower, 1 µM
- Bleomycin — lower, < 0.007 µM

Tested on: not listed separately
Assay: in vitro
Format: cell-based, Human
Details: human

N=C(N)c1ccc(OCCCCCOc2ccc(C(=N)N)cc2)cc1 [Pentamidine] and O=C1C=C2C=C[C@@H]3C[C@@]2(O1)[C@H]1CCCCN31 [Securinine] cannot be ordered by viability at 30 µM: > 95% for the first, > 95% for the second.

Tested on: 293FT cells
Assay: cells
Format: cell-based, Human
Details: Homo sapiens, read-out: 293FT Cell Viability IC50

Point of comparison: O=C1C=C2C=C[C@@H]3C[C@@]2(O1)[C@H]1CCCCN31 [Securinine], IC50 4 µM. Against it:
- COc1cc(NS(C)(=O)=O)ccc1Nc1c2ccccc2nc2ccccc12 [Amsacrine] — 4-fold lower, 1 µM
- N=c1ccn2c(n1)O[C@H]1[C@H](O)[C@@H](CO)O[C@H]12 [Ancitabine] — within 1.5-fold, 5 µM
- O=[N+]([O-])C(Br)(CO)CO [Bronopol] — 1.8-fold higher, 7 µM
- Cc1cc(C2CCCCC2)n(O)c(=O)c1 [Ciclopirox] — 2-fold higher, 8 µM
- Nc1nc(Cl)nc2c1ncn2[C@H]1C[C@H](O)[C@@H](CO)O1 [Cladribine] — the same, 4 µM
- Nc1nc(Cl)nc2c1ncn2[C@@H]1O[C@H](CO)[C@@H](O)[C@@H]1F [Clofarabine] — 2-fold lower, 2 µM
- C[C@H]1O[C@@H](n2cc(F)c(=O)[nH]c2=O)[C@H](O)[C@@H]1O [Doxifluridine] — 4-fold higher, 16 µM
- COc1cc([C@@H]2c3cc4c(cc3[C@@H](O[C@@H]3O[C@@H]5CO[C@@H](C)O[C@H]5[C@H](O)[C@H]3O)[C@H]3COC(=O)[C@H]23)OCO4)cc(OC)c1O [Etoposide] — 4-fold lower, 1 µM
- O=c1[nH]cc(F)c(=O)[nH]1 [Fluorouracil] — 3.2-fold higher, 13 µM
- CNCCC=C1c2ccccc2CCc2ccccc21 [Nortriptyline] — higher, > 15 µM
- N=C(N)c1ccc(OCCCCCOc2ccc(C(=N)N)cc2)cc1 [Pentamidine] — 2.2-fold higher, 9 µM
- Cc1cc2nc3ccc(N(C)C)cc3[s+]c2cc1N [Tolonium chloride] — the same, 4 µM

Same assay, conditions: control validation, known inhibitor

With Carrageenan the “cell viability IC50” value was ≥ 2 µg/mL.

For heparin, the “cell viability IC50” value was 83.0 µg/mL.

Same assay, conditions: human

With N=C(N)c1ccc(OCCCCCOc2ccc(C(=N)N)cc2)cc1 [Pentamidine] the cellular cytotoxicity was < 10.0%.

Same assay, conditions: lead drugs, triplicate

In the case of O=C1C=C2C=C[C@@H]3C[C@@]2(O1)[C@H]1CCCCN31 [Securinine], the cellular cytotoxicity is reported as < 10.0%.

Same assay, conditions: read-out: 293FT Cell Viability IC50

Point of comparison: O=C1[O][Pt]2([NH][C@@H]3CCCC[C@H]3[NH]2)[O]C1=O [Oxaliplatin], IC50 8 µM. Against it:
- O=c1[nH]c(=O)n([C@H]2C[C@H](O)[C@@H](CO)O2)cc1F [Fluorodeoxyuridine] — 1.6-fold higher, 13 µM
- Bleomycin — 4-fold lower, 2 µM

Tested on: SV40 promoter
Assay: SV40 promoter transfection in 293FT cells
Format: cell-based
Details: 30.0 μM, vs SV40 with no drug; data not shown

For N=C(N)c1ccc(OCCCCCOc2ccc(C(=N)N)cc2)cc1 [Pentamidine], the “effect on SV40 promoter activity” value was “did not significantly affect”.
With O=C1C=C2C=C[C@@H]3C[C@@]2(O1)[C@H]1CCCCN31 [Securinine] the “effect on SV40 promoter activity” value was “did not significantly affect”.
